# Measured values as given in patent US9023789B2, “Amylin analogs and pharmaceutical compositions thereof” (Novo Nordisk A/S, priority 2012, dated 2015).
# Numbered stars: 1 amine (or outer) side, 2 acyl side, 3 side chain; on linkers, the order of the positions; unused ones are H or OH. Bridge positions count the residues as written; N and C are the ends. Side chains are listed from the residue outwards. Peptide text beside a SMILES is read from it. * marks the point of attachment. C20 diacid = O=C(O)CCCCCCCCCCCCCCCCCCC(=O)*; γGlu = O=C(O)[C@H](CCC(=O)[*:2])N[*:1]; AEEA = NCCOCCOCC(=O)O
# Assays:
# [1] = ASSAY (IX) pK, determination of T½ in mini-pig; type: in vivo; conditions: male, Göttingen, minipig, plasma, iv, 2 nmol/kg
# [2] = ASSAY (X) pK, determination of T½ in rat; type: in vivo; conditions: male, Sprague Dawley, plasma, iv, 20 nmol/kg
# [3] = target: T1, human calcitonin (a) receptor in BHK570 cells (Homo sapiens, UniProt P30988); assay: ASSAY (II)a functional assay, human calcitonin receptor (CRE luciferase); type: cell-based; conditions: read-out: hCTR funct. EC50
# T1 construct: expressed in transfected cells
# T1 sequence (P30988 25-474): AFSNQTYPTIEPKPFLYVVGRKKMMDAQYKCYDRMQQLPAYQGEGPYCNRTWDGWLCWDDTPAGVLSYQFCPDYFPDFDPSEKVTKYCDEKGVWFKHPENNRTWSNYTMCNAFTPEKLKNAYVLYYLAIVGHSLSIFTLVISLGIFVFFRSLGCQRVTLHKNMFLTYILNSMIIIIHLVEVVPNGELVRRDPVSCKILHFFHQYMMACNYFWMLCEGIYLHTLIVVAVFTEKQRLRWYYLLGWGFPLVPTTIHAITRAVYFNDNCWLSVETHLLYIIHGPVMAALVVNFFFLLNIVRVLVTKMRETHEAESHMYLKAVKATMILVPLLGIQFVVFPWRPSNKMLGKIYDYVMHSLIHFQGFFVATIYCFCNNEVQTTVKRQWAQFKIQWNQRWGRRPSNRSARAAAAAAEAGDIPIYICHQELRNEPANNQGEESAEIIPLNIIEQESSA
# Procedure, shortened: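 BHK cells stably carrying a CRE-luciferase reporter plus calcitonin receptor, or calcitonin receptor with RAMP-3 for the amylin 3(a) receptor, were seeded and kept overnight at 37° C. Compounds were added in assay medium with 10% FBS and 10 mM Hepes, pH 7.4, for 3 hours at 37° C, then luminescence was counted.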
# [4] = tested on: Male Wistar rats; assay: ASSAY (XII) effect from single subcutaneous administration on plasma calcium in rats; type: in vivo, rat
# Procedure, shortened: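 Male Wistar rats (~250 g), groups of five, received a single subcutaneous dose at time 0. Blood drawn at −15 min, 1, 2, 4, 7, 12 and 24 h; total calcium measured in heparin plasma, reported as mean±SEM.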
# [5] = tested on: Male Sprague-Dawley rats; assay: ASSAY (XI) single subcutaneous administration, food intake monitored for 48 hours in rats; type: in vivo, rat; conditions: 30 nmol/kg
# Procedure, shortened: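 Male Sprague-Dawley rats from Taconic Europe, weighing about 250 g on the test day, were singly housed in an online food intake monitoring system (Ellegaard MBRose, Denmark). Before the study they were acclimatized to a reversed light cycle, with lights on from 10 PM to 10 AM. Each rat then received one subcutaneous dose of the analogue, and data are reported as mean±SEM.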
half-life [1],half-life [2],EC50 [3],"Plasma calcium red (%) 0-12 h (maximal) ([4]; single s.c., 30 nmol/kg, 0-12 h, compared to vehicle)",Structure (SMILES),"suppression of plasma calcium level relative to vehicle ([4]; single subcutaneous 30 nmol/kg, monitored over 24 hours)","Food intake red (%) 0-24 h ([5]; single s.c., 0-24 h, compared to vehicle)","Food intake red (%) 24-48 h ([5]; single s.c., 24-48 h, compared to vehicle)","food intake monitored over 48 hours ([5]; single subcutaneous administration, versus vehicle)"
81 h,18 h,,,CC[C@H](C)[C@H](NC(=O)[C@H](C)NC(=O)CNC(=O)[C@H](Cc1ccccc1)NC(=O)[C@H](CC(N)=O)NC(=O)[C@@H]1CCCN1C(=O)[C@H](CO)NC(=O)[C@H](CO)NC(=O)[C@H](Cc1c[nH]cn1)NC(=O)[C@H](CCCNC(=N)N)NC(=O)[C@H](CC(C)C)NC(=O)[C@H](Cc1ccccc1)NC(=O)[C@H](CC(N)=O)NC(=O)[C@H](C)NC(=O)[C@H](CC(C)C)NC(=O)[C@H](CCCNC(=N)N)NC(=O)[C@H](CCC(N)=O)NC(=O)[C@@H](NC(=O)[C@H](C)NC(=O)[C@@H]1CSSC[C@H](NC(=O)[C@@H](N)CCCCNC(=O)CC[C@H](NC(=O)CCCCCCCCCCCCCCCCCCC(=O)O)C(=O)O)C(=O)N[C@@H](CC(N)=O)C(=O)N[C@@H]([C@@H](C)O)C(=O)N[C@@H](C)C(=O)N[C@@H]([C@@H](C)O)C(=O)N1)[C@@H](C)O)C(=O)N1CCC[C@H]1C(=O)N[C@@H](CO)C(=O)N[C@@H](CO)C(=O)N[C@H](C(=O)N[C@@H](CC(N)=O)C(=O)N[C@H](C(=O)NCC(=O)N[C@@H](Cc1c[nH]cn1)C(=O)N[C@@H](CC(N)=O)C(=O)N[C@H](C(=O)N[C@@H](Cc1ccc(O)cc1)C(N)=O)[C@@H](C)O)C(C)C)[C@@H](C)O [Example 77],,,,
85 h,,3.88 nM,,CC[C@H](C)[C@H](NC(=O)[C@H](C)NC(=O)CNC(=O)[C@H](Cc1ccccc1)NC(=O)[C@H](CC(N)=O)NC(=O)[C@@H]1CCCN1C(=O)[C@H](CO)NC(=O)[C@H](CO)NC(=O)[C@H](Cc1c[nH]cn1)NC(=O)[C@H](CCCNC(=N)N)NC(=O)[C@H](CC(C)C)NC(=O)[C@H](Cc1ccccc1)NC(=O)[C@H](Cc1c[nH]cn1)NC(=O)[C@H](C)NC(=O)[C@H](CC(C)C)NC(=O)[C@H](CCCNC(=N)N)NC(=O)[C@H](CCC(N)=O)NC(=O)[C@@H](NC(=O)[C@H](C)NC(=O)[C@@H]1CSSC[C@H](NC(=O)[C@@H](N)CCCCNC(=O)CC[C@H](NC(=O)CCCCCCCCCCCCCCCCCCC(=O)O)C(=O)O)C(=O)N[C@@H](CC(N)=O)C(=O)N[C@@H]([C@@H](C)O)C(=O)N[C@@H](C)C(=O)N[C@@H]([C@@H](C)O)C(=O)N1)[C@@H](C)O)C(=O)N1CCC[C@H]1C(=O)N[C@@H](CO)C(=O)N[C@@H](CO)C(=O)N[C@H](C(=O)N[C@@H](CC(N)=O)C(=O)N[C@H](C(=O)NCC(=O)N[C@@H](CCCNC(=N)N)C(=O)N[C@@H](CC(N)=O)C(=O)N[C@H](C(=O)N[C@@H](Cc1ccc(O)cc1)C(N)=O)[C@@H](C)O)C(C)C)[C@@H](C)O [Example 85] (H-K([γGlu-C20 diacid])CNTATCATQRLAHFLRHSSPNFGAIPSSTNVGRNTY-NH2; disulfide 2-7 (inferred); N-terminus assumed),,,,
76 h,,7.37 nM,,CC[C@H](C)[C@H](NC(=O)[C@H](C)NC(=O)CNC(=O)[C@H](Cc1ccccc1)NC(=O)[C@H](CC(N)=O)NC(=O)[C@@H]1CCCN1C(=O)[C@H](CO)NC(=O)[C@H](CO)NC(=O)[C@H](Cc1c[nH]cn1)NC(=O)[C@H](CCCNC(=N)N)NC(=O)[C@H](CC(C)C)NC(=O)[C@H](Cc1ccccc1)NC(=O)[C@H](CC(N)=O)NC(=O)[C@H](C)NC(=O)[C@H](CC(C)C)NC(=O)[C@H](CCCNC(=N)N)NC(=O)[C@H](CCC(N)=O)NC(=O)[C@@H](NC(=O)[C@H](C)NC(=O)[C@@H]1CSSC[C@H](NC(=O)[C@@H](N)CCCCNC(=O)COCCOCCNC(=O)CC[C@H](NC(=O)CCCCCCCCCCCCCCCCCCC(=O)O)C(=O)O)C(=O)N[C@@H](CC(N)=O)C(=O)N[C@@H]([C@@H](C)O)C(=O)N[C@@H](C)C(=O)N[C@@H]([C@@H](C)O)C(=O)N1)[C@@H](C)O)C(=O)N1CCC[C@H]1C(=O)N[C@@H](CO)C(=O)N[C@@H](CO)C(=O)N[C@H](C(=O)N[C@@H](CC(N)=O)C(=O)N[C@H](C(=O)NCC(=O)N[C@@H](Cc1c[nH]cn1)C(=O)N[C@@H](CC(N)=O)C(=O)N[C@H](C(=O)N[C@@H](Cc1ccc(O)cc1)C(N)=O)[C@@H](C)O)C(C)C)[C@@H](C)O [Example 76] (H-K([AEEA-γGlu-C20 diacid])CNTATCATQRLANFLRHSSPNFGAIPSSTNVGHNTY-NH2; disulfide 2-7; N-terminus assumed),,,,
,14 h,8.16 nM,8%,CC[C@H](C)[C@H](NC(=O)[C@H](C)NC(=O)CNC(=O)[C@H](Cc1ccccc1)NC(=O)[C@H](CC(N)=O)NC(=O)[C@@H]1CCCN1C(=O)[C@H](CO)NC(=O)[C@H](CO)NC(=O)[C@H](Cc1c[nH]cn1)NC(=O)[C@H](CCCNC(=N)N)NC(=O)[C@H](CC(C)C)NC(=O)[C@H](Cc1ccccc1)NC(=O)[C@H](CCC(=O)O)NC(=O)[C@H](C)NC(=O)[C@H](CC(C)C)NC(=O)[C@H](CCCNC(=N)N)NC(=O)[C@H](CCC(N)=O)NC(=O)[C@@H](NC(=O)[C@H](C)NC(=O)[C@@H]1CSSC[C@H](NC(=O)[C@@H](N)CCCCNC(=O)CC[C@H](NC(=O)CC[C@H](NC(=O)CCCCCCCCCCCCCCCCCCC(=O)O)C(=O)O)C(=O)O)C(=O)N[C@@H](CC(N)=O)C(=O)N[C@@H]([C@@H](C)O)C(=O)N[C@@H](C)C(=O)N[C@@H]([C@@H](C)O)C(=O)N1)[C@@H](C)O)C(=O)N1CCC[C@H]1C(=O)N[C@@H](CO)C(=O)N[C@@H](CO)C(=O)N[C@H](C(=O)N[C@@H](CC(N)=O)C(=O)N[C@H](C(=O)NCC(=O)N1CCC[C@H]1C(=O)N[C@@H](CCCNC(=N)N)C(=O)N[C@H](C(=O)N[C@@H](Cc1ccc(O)cc1)C(N)=O)[C@@H](C)O)C(C)C)[C@@H](C)O [Example 110] (H-K([γGlu-γGlu-C20 diacid])CNTATCATQRLAEFLRHSSPNFGAIPSSTNVGPRTY-NH2; disulfide 2-7),None of the example compounds at 30 nmol/kg trigger a notable suppression of the calcium level,68%,31%,reduces food intake
